Assay results published in patent US12077503B2, “Substituted cyclic amides and their use as herbicides” (FMC CORPORATION, priority 2015, dated 2024).

Legend:
Format in all cases: in vivo
[1] = tested on: pigweed (Amaranthus retroflexus); experiment: Test A preemergence; settings: Amaranthus retroflexus, pre-emergence, 240 h, Preemergence
[2] = tested on: Kochia (Kochia scoparia); experiment: Test A preemergence; settings: Bassia scoparia, pre-emergence, 240 h, Preemergence
How it was run: (§1)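 Compounds were formulated in a non-phytotoxic solvent mixture with surfactant and applied as a preemergence directed soil spray after seeding, or sprayed postemergence over plants 2 to 10 cm tall at the one- to two-leaf stage. Evaluation after about 10 d compared treated with untreated controls, using a scale from 0 (no effect) to 100 (complete control).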

[3] = tested on: giant foxtail (Setaria faberii); experiment: Test A preemergence; settings: Setaria faberi, pre-emergence, 240 h, Preemergence
How it was run: as §1

[4] = tested on: barnyardgrass (Echinochloa crus-galli); experiment: Test A preemergence; settings: Echinochloa crus-galli, pre-emergence, 240 h, Preemergence
How it was run: as §1

[5] = tested on: ragweed (common ragweed, Ambrosia elatior); experiment: Test A preemergence; settings: Ambrosia artemisiifolia, pre-emergence, 240 h, Preemergence
How it was run: as §1

[6] = tested on: ryegrass, Italian (Italian ryegrass, Lolium multiflorum); experiment: Test A preemergence; settings: Lolium multiflorum, pre-emergence, 240 h, Preemergence
How it was run: as §1

[7] = tested on: sedge, umbrella (small-flower umbrella sedge, Cyperus difformis); experiment: Test B flooded paddy test; settings: Cyperus difformis, Flood, 250 g ai/ha; scale of 0 to 100 where 0 is no effect and 100 is complete control; read-out: Sedge, Umbrella plant response rating
How it was run: (§2)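 2-leaf plants; pots flooded 3 cm over soil; cpd added to paddy water; depth held; greenhouse 13–15 d; visual rating vs controls, 0 = no effect, 100 = complete control.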

[8] = tested on: ducksalad (Heteranthera limosa); experiment: Test B flooded paddy test; settings: Heteranthera limosa, Flood, 250 g ai/ha; scale of 0 to 100 where 0 is no effect and 100 is complete control; read-out: Ducksalad plant response rating
How it was run: as §2

[9] = tested on: barnyardgrass (Echinochloa crus-galli); experiment: Test B flooded paddy test; settings: Echinochloa crus-galli, Flood, 250 g ai/ha; scale of 0 to 100 where 0 is no effect and 100 is complete control; read-out: Barnyardgrass plant response rating
How it was run: as §2

[10] = tested on: rice (Oryra sativa); experiment: Test B flooded paddy test; settings: Oryza sativa, Flood, 250 g ai/ha; scale of 0 to 100 where 0 is no effect and 100 is complete control; read-out: Rice plant response rating
How it was run: as §2

[11] = tested on: pigweed (Amaranthus retroflexus); experiment: Test A postemergence; settings: Amaranthus retroflexus, post-emergence, 240 h, Postemergence, read-out: Plant response rating, Pigweed
How it was run: as §1

[12] = tested on: blackgrass (Alopecurus myosuroides); experiment: Test A postemergence; settings: Alopecurus myosuroides, post-emergence, 240 h, Postemergence, read-out: Plant response rating, Blackgrass
How it was run: as §1

[13] = tested on: Kochia (Kochia scoparia); experiment: Test A postemergence; settings: Bassia scoparia, post-emergence, 240 h, Postemergence, read-out: Plant response rating, Kochia
How it was run: as §1

[14] = tested on: giant foxtail (Setaria faberii); experiment: Test A postemergence; settings: Setaria faberi, post-emergence, 240 h, Postemergence, read-out: Plant response rating, Foxtail, Giant
How it was run: as §1

[15] = tested on: Galium (catchweed bedstraw, Galium aparine); experiment: Test A postemergence; settings: Galium, post-emergence, 240 h, Postemergence, read-out: Plant response rating, Galium
How it was run: as §1

[16] = tested on: barnyardgrass (Echinochloa crus-galli); experiment: Test A postemergence; settings: Echinochloa crus-galli, post-emergence, 240 h, Postemergence, read-out: Plant response rating, Barnyardgrass
How it was run: as §1

[17] = tested on: ragweed (common ragweed, Ambrosia elatior); experiment: Test A postemergence; settings: Ambrosia artemisiifolia, post-emergence, 240 h, Postemergence, read-out: Plant response rating, Ragweed
How it was run: as §1

[18] = tested on: wheat (Triticum aestivum); experiment: Test A postemergence; settings: Triticum aestivum, post-emergence, 240 h, Postemergence, read-out: Plant response rating, Wheat
How it was run: as §1

[19] = tested on: ryegrass, Italian (Italian ryegrass, Lolium multiflorum); experiment: Test A postemergence; settings: Lolium multiflorum, post-emergence, 240 h, Postemergence, read-out: Plant response rating, Ryegrass, Italian
How it was run: as §1

[20] = tested on: corn (Zea mays); experiment: Test A postemergence; settings: Zea mays, post-emergence, 240 h, Postemergence
How it was run: as §1

[21] = 125 g ai/ha, visual injury after approximately 10 d, 0 to 100 scale where 0 is no effect and 100 is complete control
[22] = 31 g ai/ha, visual injury after approx. 10 d, 0 to 100 scale, 0 no effect, 100 complete control

SMILES: Cc1oncc1NC(=O)[C@H]1C(=O)N(C)C[C@@H]1c1cc(F)cc(F)c1 [Compound 970]
- pest or weed control at 125 g/ha ([1]; 125 g ai/ha, visual injury rating after approximately 10 d, read-out: Pigweed plant response rating (0 to 100 scale, 0 is no effect, 100 is complete control)): 0%
- pest or weed control at 31 g/ha ([1]; 31 g ai/ha, 0 to 100 scale (0 no effect, 100 complete control), read-out: Plant response rating, Pigweed): 0%
- pest or weed control at 125 g/ha ([2]; 125 g ai/ha, visual injury rating after approximately 10 d, read-out: Kochia plant response rating (0 to 100 scale, 0 is no effect, 100 is complete control)): 0%
- pest or weed control at 31 g/ha ([2]; 31 g ai/ha, 0 to 100 scale (0 no effect, 100 complete control), read-out: Plant response rating, Kochia): 0%
- pest or weed control at 125 g/ha ([3]; 125 g ai/ha, visual injury rating after approximately 10 d, read-out: Foxtail, Giant plant response rating (0 to 100 scale, 0 is no effect, 100 is complete control)): 80%
- pest or weed control at 31 g/ha ([3]; 31 g ai/ha, 0 to 100 scale (0 no effect, 100 complete control), read-out: Plant response rating, Foxtail, Giant): 20%
- pest or weed control at 125 g/ha ([4]; 125 g ai/ha, visual injury rating after approximately 10 d, read-out: Barnyardgrass plant response rating (0 to 100 scale, 0 is no effect, 100 is complete control)): 0%
- pest or weed control at 31 g/ha ([4]; 31 g ai/ha, 0 to 100 scale (0 no effect, 100 complete control), read-out: Plant response rating, Barnyardgrass): 0%
- pest or weed control at 125 g/ha ([5]; 125 g ai/ha, visual injury rating after approximately 10 d, read-out: Ragweed plant response rating (0 to 100 scale, 0 is no effect, 100 is complete control)): 0%
- pest or weed control at 31 g/ha ([5]; 31 g ai/ha, 0 to 100 scale (0 no effect, 100 complete control), read-out: Plant response rating, Ragweed): 0%
- pest or weed control at 125 g/ha ([6]; 125 g ai/ha, visual injury rating after approximately 10 d, read-out: Ryegrass, Italian plant response rating (0 to 100 scale, 0 is no effect, 100 is complete control)): 0%
- pest or weed control at 31 g/ha ([6]; 31 g ai/ha, 0 to 100 scale (0 no effect, 100 complete control), read-out: Plant response rating, Ryegrass, Italian): 0%
- pest or weed control at 250 g/ha [7]: 0%
- pest or weed control at 250 g/ha [8]: 0%
- pest or weed control at 250 g/ha [9]: 0%
- pest or weed control at 250 g/ha [10]: 0%
- pest or weed control at 125 g/ha [11, 21]: 0%
- pest or weed control at 31 g/ha [11, 22]: 0%
- pest or weed control at 125 g/ha [12, 21]: 0%
- pest or weed control at 31 g/ha [12, 22]: 0%
- pest or weed control at 125 g/ha [13, 21]: 0%
- pest or weed control at 31 g/ha [13, 22]: 0%
- pest or weed control at 125 g/ha [14, 21]: 0%
- pest or weed control at 31 g/ha [14, 22]: 0%
- pest or weed control at 125 g/ha [15, 21]: 0%
- pest or weed control at 31 g/ha [15, 22]: 0%
- pest or weed control at 125 g/ha [16, 21]: 0%
- pest or weed control at 31 g/ha [16, 22]: 0%
- pest or weed control at 125 g/ha [17, 21]: 0%
- pest or weed control at 31 g/ha [17, 22]: 0%
- plant injury at 125 g/ha [18, 21]: 0%
- plant injury at 31 g/ha [18, 22]: 0%
- pest or weed control at 125 g/ha [19, 21]: 0%
- pest or weed control at 31 g/ha [19, 22]: 0%
- Corn plant response rating (crop injury, 0 = no effect, 100 = complete kill) at 125 g/ha [20, 21]: 0%
- Corn plant response rating (crop injury, 0 = no effect, 100 = complete kill) at 31 g/ha [20, 22]: 0%
